Reference: patent US20250243194A1, “ANTAGONIST OF ADENOSINE RECEPTORS” (AdoRx Therapeutics Limited, priority 2022, published 2025)

How the values were obtained:
[1] = target: human Adenosine A2b receptor (Homo sapiens (Human), UniProt P29275); assay: Adenosine receptor TR-FRET binding assay (A2b); settings: inhibition of binding of 30 nM CA200645; CHO cell membranes; Ki from IC50 by Cheng and Prusoff
Method: (§1) All FRET binding experiments were conducted at room temperature in white 384-well plates, in assay binding buffer containing 1× LabMed (Cisbio, France), 100 μg/mL saponin, 1% DMSO and 0.02% pluronic acid. Binding of the fluorescently labelled Adenosine receptor antagonist XAC (CA200645, FRET acceptor) to terbium-labelled A1, A2a, A2b and A3 adenosine receptors (FRET donors) was detected by time-resolved FRET due to the close proximity of the donor and acceptor in a binding event. To investigate the ability of unlabelled test compounds to bind to Adenosine A1, A2a, A2b and A3 receptors, dose response curves were constructed that determined the ability of a range of concentrations to inhibit the binding of 30 nM CA200645 to the A2b receptor and 100 nM CA200645 to the A1, A2a, and A3 receptor.
(§2) Serial dilution (1:3 dilutions) of test compounds in neat DMSO and transfer of a 400 nL sample of test compound into the assay plate was carried out using the Mosquito (TTP Labtech, UK). The compound samples were incubated for 2 hours at room temperature with a fixed concentration of CA200645 defined for each receptor (see above) and CHO cell membranes containing the human Adenosine A1 (0.5 μg/well), A2a (0.3 μg/well), A2b (1 μg/well) or A3 (1 μg/well) receptor in 40 μL of assay buffer. Total and non-specific binding of CA200645 was determined in the absence and presence of 10 μM XAC, respectively. Following 2 hours incubation, the level of CA200645 binding was detected on a Pherastar FSX (BMG Labtech, Germany) using standard TR-FRET settings. The terbium donor was excited with three laser flashes at a wavelength of 337 nm, and donor and acceptor emission was detected at 620 nm and 665 nm wavelengths, respectively. FRET ratios were obtained by multiplying the acceptor/donor ratio value by 10,000. Specific binding was determined by subtracting the non-specific binding FRET ratio from the total binding FRET ratio. Compound IC50 curves were analysed using GraphPad Prism 7.0 (GraphPad, USA) and Ki affinity values were determined from the obtained IC50 values using the method of Cheng and Prusoff.

[2] = target: human Adenosine A1 receptor (Homo sapiens (Human), UniProt P30542); assay: Adenosine receptor TR-FRET binding assay (A1); settings: inhibition of binding of 100 nM CA200645; CHO cell membranes; Ki from IC50 by Cheng and Prusoff
Method: as §1, §2

[3] = target: human Adenosine A2a receptor (Homo sapiens (Human), UniProt P29274); assay: Adenosine receptor TR-FRET binding assay (A2a); settings: inhibition of binding of 100 nM CA200645; CHO cell membranes; Ki from IC50 by Cheng and Prusoff
Method: as §1, §2

[4] = system: CD8+ T cells in human whole blood; assay: Measurement of pCREB in CD8+ T cells in human whole blood; format: cell-based; settings: T-cell, 3 μM NECA, rolipram, FACS
Method: Heparinised human whole blood was pre-incubated at 37° C. with serial dilutions of A2a antagonists for 20 min. and the phosphodiesterase inhibitor rolipram to amplify the pCREB response. The adenosine receptor agonist NECA is then added at a final concentration of 3 μM and following a 60 min incubation the blood is fixed and red blood cells lysed. White blood cells are isolated, permeabilized and stained with directly conjugated fluorescent antibodies to phospho-CREB (Alexa Fluor 488) and CD8 (Alexa Fluor 647) and the level of phospho-CREB in CD8+ T cells is measured by FACS using a BD Accuri C6 Flow Cytometer.

[5] = system: immature monocyte-derived dendritic cells (MoDC); assay: MoDC pCREB assay; format: cell-based; settings: Homo sapiens, Dendritic cell, CD209+/CD86-low cells, 1 μM NECA, 20 μM rolipram, largely specific to A2B
Method: Monocytes are isolated from human whole blood using CD14 microbeads (Miltenyi Biotec 130-050-201) and differentiated to immature monocyte-derived dendritic cells (MoDC) by culture for 5 days in Mo-DC Differentiation Medium (Miltenyi Biotec 130-094-812). MoDCs are seeded into fresh medium into U bottomed 96 well culture plates and pre-incubated at 37° C. with serial dilutions of A2A/B antagonists for 15 min. At the same time the cells are co-incubated with the phosphodiesterase inhibitor rolipram (final concentration of 20 μM) to amplify the subsequent pCREB response. Adenosine receptor agonist NECA is then added at 1 μM final concentration, leading to an increase in CREB phosphorylation. Following a 45 min incubation at 37° C., the cells are fixed, permeabilized and stained with directly conjugated fluorescent antibodies to phospho-CREB (Alexa Fluor 488), CD209 (PerCP-Cy5.5) and CD86 (APC). Samples are analysed by FACS to measure fluorescence in corresponding channels, and also forward and Side scatter. The population of CD209+/CD86-low cells corresponding to immature dendritic cells is gated for analysis of pCREB levels.
Approximately 5% of the analysed cells are positive for detection of pCREB in the absence of agonist stimulation, representing the background signalling of all pathways upstream of CREB. Following NECA stimulation this is increased to ˜80% pCREB+ve, and this increase is essentially fully reversible by A2B or dual A2A/B antagonists.
IC50 is represented as the point of inflection of a sigmoidal curve

[6] = target: human Adenosine A3 receptor (Homo sapiens (Human), UniProt P0DMS8); assay: Adenosine receptor TR-FRET binding assay (A3); settings: inhibition of binding of 100 nM CA200645; CHO cell membranes; Ki from IC50 by Cheng and Prusoff
Method: as §1, §2

human PBMCs = assay: CD3/CD28 stimulated IL-2 release NECA reversal assay in human PBMCs; format: cell-based; settings: PBMC, reversal of 1 uM NECA, 24 hours
Method: Blood is drawn from healthy volunteers using sodium citrate as the anticoagulant (0.3% final concentration). After centrifugation of the blood over Histopaque-1077, PBMCs are collected from the Histopaque/plasma interface and washed twice in PBS (300 g for 10 mins at room temp). Cells are plated at 50,000 cells/well in 150 μl RPMI/10% FCS in 96-well cell culture plates that have been precoated with 1 μg/ml CD3 antibody. 50 μl diluted compound mix is added to the cells, to obtain final concentrations of 1 μg/ml CD28 antibody, 1 uM NECA and 0.003-10 μM adenosine receptor antagonist. Assay plates are incubated for 24 hours at 37° C. in a humidified incubator. Culture supernatant is tested for IL-2 levels using the human IL-2 Tissue Culture Kit (Meso Scale Discovery).

human Adenosine A2b receptor, sequence (P29275 whole entry): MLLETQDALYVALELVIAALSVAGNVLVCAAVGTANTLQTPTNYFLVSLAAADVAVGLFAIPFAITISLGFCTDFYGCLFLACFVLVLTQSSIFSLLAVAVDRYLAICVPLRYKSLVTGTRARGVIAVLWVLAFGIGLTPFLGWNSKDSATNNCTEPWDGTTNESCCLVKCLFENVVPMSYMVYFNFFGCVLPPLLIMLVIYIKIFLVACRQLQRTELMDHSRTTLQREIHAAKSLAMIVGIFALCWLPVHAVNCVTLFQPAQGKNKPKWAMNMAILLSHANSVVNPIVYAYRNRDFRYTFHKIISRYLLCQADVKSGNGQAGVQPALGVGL
human Adenosine A1 receptor, sequence (P30542 whole entry): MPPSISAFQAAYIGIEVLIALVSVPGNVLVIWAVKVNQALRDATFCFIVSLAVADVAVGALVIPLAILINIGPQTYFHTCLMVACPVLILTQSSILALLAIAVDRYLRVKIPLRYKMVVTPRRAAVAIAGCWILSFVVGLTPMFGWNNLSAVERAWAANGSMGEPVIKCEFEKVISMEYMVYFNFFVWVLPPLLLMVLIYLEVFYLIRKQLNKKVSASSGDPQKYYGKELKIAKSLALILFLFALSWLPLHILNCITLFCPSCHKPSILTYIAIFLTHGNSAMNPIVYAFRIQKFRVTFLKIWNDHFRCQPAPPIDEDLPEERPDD
human Adenosine A3 receptor, sequence (P0DMS8 whole entry): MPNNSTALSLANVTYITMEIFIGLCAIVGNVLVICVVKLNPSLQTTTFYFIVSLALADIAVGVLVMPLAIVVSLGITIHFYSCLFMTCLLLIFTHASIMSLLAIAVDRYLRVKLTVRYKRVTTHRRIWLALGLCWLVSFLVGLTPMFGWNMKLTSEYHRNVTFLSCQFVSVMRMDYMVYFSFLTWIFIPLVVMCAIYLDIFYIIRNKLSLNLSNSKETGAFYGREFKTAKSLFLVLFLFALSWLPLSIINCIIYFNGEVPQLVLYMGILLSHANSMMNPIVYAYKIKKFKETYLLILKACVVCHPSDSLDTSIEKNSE
human Adenosine A2a receptor, sequence (P29274 whole entry): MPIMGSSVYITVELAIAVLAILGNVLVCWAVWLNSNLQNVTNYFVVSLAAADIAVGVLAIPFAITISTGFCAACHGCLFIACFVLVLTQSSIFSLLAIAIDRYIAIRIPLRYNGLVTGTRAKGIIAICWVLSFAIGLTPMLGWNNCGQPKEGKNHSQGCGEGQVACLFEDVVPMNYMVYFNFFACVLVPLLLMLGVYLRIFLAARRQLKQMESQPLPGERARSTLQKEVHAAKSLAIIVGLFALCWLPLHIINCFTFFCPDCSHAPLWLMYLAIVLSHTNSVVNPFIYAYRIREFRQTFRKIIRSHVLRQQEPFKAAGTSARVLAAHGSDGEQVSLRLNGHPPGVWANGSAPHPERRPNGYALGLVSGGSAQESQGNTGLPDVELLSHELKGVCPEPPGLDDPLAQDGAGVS

Compound	Ki [1] [nM]	Ki [2] [nM]	Ki [3] [nM]	IC50 [4] [nM]	IC50 [5] [nM]	Ki [6] [nM]	IC50 (human PBMCs) [nM]
Cc1ncnc2ccc(-c3sc(NC(=O)N4CCC(N5CCNCC5)CC4)nc3-c3cccc(C#N)c3)cc12 [Example 3, N-[4-(3-Cyanophenyl)-5-(4-methylquinazolin-6-yl)thiazol-2-yl]-4-piperazin-1-yl-piperidine-1-carboxamide]	7.7	554	2.26	70	6	–	–
Cc1ncnc2ccc(-c3sc(NC(=O)N4CCC5(CC4)COCCN5)nc3-c3cccc(C#N)c3)cc12 [Example 2, N-[4-(3-Cyanophenyl)-5-(4-methylquinazolin-6-yl)thiazol-2-yl]-4-oxa-1,9-diazaspiro[5.5]undecane-9-carboxamide]	2.8	70	0.32	20	3	–	–
Cn1ccc2c(-c3sc(NC(=O)N4CC5(COC5)C4)nc3-c3cccc(C#N)c3)ccnc21 [Example 21, N-[4-(3-Cyanophenyl)-5-(1-methylpyrrolo[2,3-b]pyridin-4-yl)thiazol-2-yl]-2-oxa-6-azaspiro[3.3]heptane-6-carboxamide]	2.6	4	8.33	–	–	421	–
Cc1cc(-c2sc(NC(=O)N3CC4(COC4)C3)nc2-c2cccc(C#N)c2)cc2[nH]nnc12 [Example 2.3, N-[4-(3-Cyanophenyl)-5-(7-methyl-3H-benzotriazol-5-yl)thiazol-2-yl]-2-oxa-6-azaspiro[3.3]heptane-6-carboxamide]	1.7	1	1.37	–	–	466	–
N#Cc1cccc(-c2nc(NC(=O)N3CC4(COC4)C3)sc2-c2c[nH]c3ncccc23)c1 [Example 17, N-[4-(3-Cyanophenyl)-5-(1H-pyrrolo[2,3-b]pyridin-3-yl)thiazol-2-yl]-2-oxa-6-azaspiro[3.3]heptane-6-carboxamide]	0.8	1	3.11	–	–	305	–
Cc1cc(-c2sc(NC(=O)N3CC4(COC4)C3)nc2-c2cccc(C#N)c2)cn2c(C)cnc12 [Example 18, N-[4-(3-Cyanophenyl)-5-(3,8-dimethylimidazo[1,2-a]pyridin-6-yl)thiazol-2-yl]-2-oxa-6-azaspiro[3.3]heptane-6-carboxamide]	0.9	1	0.11	–	–	2630	–
Cc1ncnc2ccc(-c3sc(NC(=O)N4CC[C@@](C)(C#N)C4)nc3-c3cccc(C#N)c3)cc12 [Example 7.1, (3R)-3-Cyano-N-[4-(3-cyanophenyl)-5-(4-methylquinazolin-6-yl)thiazol-2-yl]-3-methyl-pyrrolidine-1-carboxamide]	0.9	121	36.9	–	–	828	–

The next lines start with results.

Ki [1] [nM]	Ki [2] [nM]	Ki [3] [nM]	IC50 [4] [nM]	IC50 [5] [nM]	Ki [6] [nM]	Compound	IC50 (human PBMCs) [nM]
136	272	8.87	–	–	103	Cc1cc(-c2sc(NC(=O)N3CC4(COC4)C3)nc2-c2cccc(C#N)c2)cnc1-n1nccn1 [Example 32, N-[4-(3-Cyanophenyl)-5-[5-methyl-6-(triazol-2-yl)-3-pyridyl]thiazol-2-yl]-2-oxa-6-azaspiro[3.3]heptane-6-carboxamide]	–
6.7	21	8.4	–	–	628	Cc1cc(-c2sc(NC(=O)N3CC4(COC4)C3)nc2-c2cccc(C#N)c2)cc2cn(C)nc12 [Example 28, N-[4-(3-Cyanophenyl)-5-(2,7-dimethylindazol-5-yl)thiazol-2-yl]-2-oxa-6-azaspiro[3.3]heptane-6-carboxamide]	–
0.5	0.3	0.07	–	–	1730	Cn1cnc2ccc(-c3sc(NC(=O)N4CC5(COC5)C4)nc3-c3cccc(C#N)c3)cc21 [Example 25, N-[4-(3-Cyanophenyl)-5-(3-methylbenzimidazol-5-yl)thiazol-2-yl]-2-oxa-6-azaspiro[3.3]heptane-6-carboxamide]	–
2.9	0.5	0.08	–	–	907	Cc1cc(-c2sc(NC(=O)N3CC4(COC4)C3)nc2-c2cccc(C#N)c2)cc2cn[nH]c12 [Example 27, N-[4-(3-Cyanophenyl)-5-(7-methyl-1H-indazol-5-yl)thiazol-2-yl]-2-oxa-6-azaspiro[3.3]heptane-6-carboxamide]	–
1.4	0.4	0.15	–	–	2550	Cc1cnc2ccc(-c3sc(NC(=O)N4CC5(COC5)C4)nc3-c3cccc(C#N)c3)cn12 [Example 22, N-[4-(3-Cyanophenyl)-5-(3-methylimidazo[1,2-a]pyridin-6-yl)thiazol-2-yl]-2-oxa-6-azaspiro[3.3]heptane-6-carboxamide]	–
1.6	467	6.56	–	–	126	Cc1cc(-c2sc(NC(=O)N3CC4(COC4)C3)nc2-c2cccc(C#N)c2)c2[nH]ncc2n1 [Example 23, N-[4-(3-Cyanophenyl)-5-(5-methyl-1H-pyrazolo[4,3-b]pyridin-7-yl)thiazol-2-yl]-2-oxa-6-azaspiro[3.3]heptane-6-carboxamide]	–
0.5	0.3	0.33	–	–	904	N#Cc1cccc(-c2nc(NC(=O)N3CC4(COC4)C3)sc2-c2ccc3nccn3c2)c1 [Example 26, N-[4-(3-Cyanophenyl)-5-imidazo[1,2-a]pyridin-6-yl-thiazol-2-yl]-2-oxa-6-azaspiro[3.3]heptane-6-carboxamide]	–
0.5	0.2	0.36	219	–	758	N#Cc1cccc(-c2nc(NC(=O)N3CCOCC3)sc2-c2ccn3nccc3c2)c1 [Example 33, N-[4-(3-Cyanophenyl)-5-pyrazolo[1,5-a]pyridin-5-yl-thiazol-2-yl]morpholine-4-carboxamide]	6.4
